{
  "source": "patent EP4596574A1",
  "about": "“GLP-1/GCG/GIP TRIPLE-RECEPTOR AGONIST AND USE THEREOF” (Sunshine Lake Pharma Co., Ltd., priority 2022, dated 2024)",
  "type_in_all_cases": "cell-based",
  "key": {"GIPR": {"target": "T1, GIPR (Homo sapiens, UniProt P48546)", "T1 construct": "expressed in transfected cells; host or cells: HEK293 (HEK293-GIPR)", "T1 sequence (P48546 22-466)": "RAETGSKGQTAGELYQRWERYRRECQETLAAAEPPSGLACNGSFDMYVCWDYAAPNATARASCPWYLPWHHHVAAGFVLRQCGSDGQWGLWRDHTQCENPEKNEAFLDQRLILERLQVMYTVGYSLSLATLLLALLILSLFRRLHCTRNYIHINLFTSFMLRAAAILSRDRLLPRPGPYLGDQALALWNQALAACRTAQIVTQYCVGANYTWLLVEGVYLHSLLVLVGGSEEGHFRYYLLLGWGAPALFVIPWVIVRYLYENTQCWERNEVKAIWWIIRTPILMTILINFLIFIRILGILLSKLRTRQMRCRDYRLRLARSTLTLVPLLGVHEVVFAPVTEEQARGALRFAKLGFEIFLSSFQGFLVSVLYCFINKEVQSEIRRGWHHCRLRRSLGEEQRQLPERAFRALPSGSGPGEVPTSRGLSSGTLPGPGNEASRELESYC", "test": "In vitro cell activity, cAMP production in HEK293 cells expressing GIPR", "conditions": "HEK293-GIPR cells, cAMP; read-out: GIPR (EC50)", "outline": "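cAMP accumulation is quantified by homogeneous TR-FRET (cAMP-d2 plus anti-cAMP cryptate) in GIPR-expressing HEK293 cells seeded from a 4×10^5 cells/mL suspension and treated with compound. The signal ratio is plotted against concentration and fitted to a four-parameter curve to give EC50.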"}, "GLP-1R": {"target": "T2, GLP-1R (Homo sapiens, UniProt P43220)", "T2 construct": "expressed in transfected cells; host or cells: HEK293 (HEK293-GLP-1R)", "T2 sequence (P43220 24-463, species assumed)": "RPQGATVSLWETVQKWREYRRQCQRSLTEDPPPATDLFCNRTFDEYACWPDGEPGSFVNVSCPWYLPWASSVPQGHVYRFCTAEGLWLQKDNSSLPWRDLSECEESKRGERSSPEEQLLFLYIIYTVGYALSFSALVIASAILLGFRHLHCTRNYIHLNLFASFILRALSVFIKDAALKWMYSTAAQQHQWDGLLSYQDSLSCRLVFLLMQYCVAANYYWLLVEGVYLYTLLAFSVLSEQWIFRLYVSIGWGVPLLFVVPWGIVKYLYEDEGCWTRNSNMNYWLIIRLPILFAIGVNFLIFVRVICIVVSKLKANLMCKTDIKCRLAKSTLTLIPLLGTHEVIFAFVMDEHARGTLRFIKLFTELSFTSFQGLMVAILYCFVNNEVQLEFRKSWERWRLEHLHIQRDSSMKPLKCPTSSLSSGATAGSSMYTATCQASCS", "test": "In vitro cell activity, cAMP production in HEK293 cells expressing GLP-1R", "conditions": "HEK293-GLP-1R cells, cAMP; read-out: GLP-1R (EC50)", "outline": "(§1)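 Cells were plated at 4×10^5 cells/mL, and detection reagents (cAMP-d2, anti-cAMP cryptate, 1:1) were incubated 1 h at room temperature in the dark or overnight at 4 °C.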"}, "GCGR": {"target": "T3, GCGR (Homo sapiens, UniProt P47871)", "T3 construct": "expressed in transfected cells; host or cells: HEK293 (HEK293-GCGR)", "T3 sequence (P47871 26-477, species assumed)": "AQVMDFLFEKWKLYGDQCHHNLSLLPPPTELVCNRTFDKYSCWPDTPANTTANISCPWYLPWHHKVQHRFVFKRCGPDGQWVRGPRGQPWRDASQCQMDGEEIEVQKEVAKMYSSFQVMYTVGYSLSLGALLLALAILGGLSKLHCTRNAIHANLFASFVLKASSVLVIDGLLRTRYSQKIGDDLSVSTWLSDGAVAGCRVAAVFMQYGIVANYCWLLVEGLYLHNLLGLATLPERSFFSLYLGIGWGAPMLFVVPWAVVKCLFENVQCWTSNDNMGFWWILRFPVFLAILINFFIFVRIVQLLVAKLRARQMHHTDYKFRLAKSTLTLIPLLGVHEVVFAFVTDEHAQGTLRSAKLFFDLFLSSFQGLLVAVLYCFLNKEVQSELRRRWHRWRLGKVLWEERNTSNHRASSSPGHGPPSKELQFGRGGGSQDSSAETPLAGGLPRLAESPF", "test": "In vitro cell activity, cAMP production in HEK293 cells expressing GCGR", "conditions": "HEK293-GCGR cells, cAMP; read-out: GCGR (EC50)", "outline": "as §1"}},
  "note": "Starred links: 1 amine or outer side, 2 acyl side, 3 side chain; linkers in the order of their positions; H or OH if unused. Non-standard residues stand in square brackets, D forms with d. Residues, ends and D or L forms follow the SMILES beside them. Groups on a side chain read outwards from the residue. *: point of attachment. C18 diacid = O=C(O)CCCCCCCCCCCCCCCCC(=O)*; αMePhe(2-F) = C[C@](N)(Cc1ccccc1F)C(=O)O; γGlu = O=C(O)[C@H](CCC(=O)[*:2])N[*:1]; AEEA = NCCOCCOCC(=O)O; Aib = CC(C)(N)C(=O)O",
  "data": [
    {"compound": "CC[C@H](C)[C@H](NC(=O)[C@H](CCCCN)NC(=O)[C@H](CC(=O)O)NC(=O)[C@H](CCCCNC(=O)COCCOCCNC(=O)CC[C@H](NC(=O)CCCCCCCCCCCCCCCCC(=O)O)C(=O)O)NC(=O)[C@H](CC(C)C)NC(=O)[C@@H](NC(=O)[C@H](CO)NC(=O)[C@H](Cc1ccc(O)cc1)NC(=O)[C@H](CC(=O)O)NC(=O)[C@H](CO)NC(=O)[C@@H](NC(=O)[C@](C)(Cc1ccccc1F)NC(=O)[C@@H](NC(=O)CNC(=O)[C@H](CCC(N)=O)NC(=O)C(C)(C)NC(=O)[C@@H](N)Cc1ccc(O)cc1)[C@@H](C)O)[C@@H](C)O)[C@@H](C)CC)C(=O)N[C@@H](C)C(=O)N[C@@H](CCC(N)=O)C(=O)NC(C)(C)C(=O)N[C@@H](C)C(=O)N[C@@H](Cc1ccccc1)C(=O)N[C@H](C(=O)N[C@@H](CCC(=O)O)C(=O)N[C@@H](Cc1ccc(O)cc1)C(=O)N[C@@H](CC(C)C)C(=O)N[C@@H](CC(C)C)C(=O)N[C@@H](C)C(=O)NCC(=O)NCC(=O)N1CCC[C@H]1C(=O)N[C@@H](CO)C(=O)N[C@@H](CO)C(=O)NCC(=O)N[C@@H](C)C(=O)N1CCC[C@H]1C(=O)N1CCC[C@H]1C(=O)N1CCC[C@H]1C(=O)N[C@@H](CO)C(N)=O)[C@@H](C)CC", "note": "[HEC-PT139] (H-Y[Aib]QGT[αMePhe(2-F)]TSDYSILK([AEEA-γGlu-C18 diacid])DKIAQ[Aib]AFIEYLLAGGPSSGAPPPS-NH2)", "values": [
      {"measurement": "EC50", "setting": "GIPR", "result": 35.9, "unit": "pM"},
      {"measurement": "EC50", "setting": "GLP-1R", "result": 158, "unit": "pM"},
      {"measurement": "EC50", "setting": "GCGR", "result": 82.1, "unit": "pM"}
    ]},
    {"compound": "CC[C@H](C)[C@H](NC(=O)[C@H](Cc1ccccc1)NC(=O)[C@H](C)NC(=O)[C@H](CCC(N)=O)NC(=O)[C@H](CCC(N)=O)NC(=O)[C@H](C)NC(=O)[C@H](CCCCNC(=O)COCCOCCNC(=O)CC[C@H](NC(=O)CCCCCCCCCCCCCCCCC(=O)O)C(=O)O)NC(=O)[C@H](CCCNC(=N)N)NC(=O)[C@H](CC(=O)O)NC(=O)[C@H](CC(C)C)NC(=O)[C@H](CC(C)C)NC(=O)[C@@H](NC(=O)[C@H](CO)NC(=O)[C@H](Cc1ccc(O)cc1)NC(=O)[C@H](CC(=O)O)NC(=O)[C@H](CO)NC(=O)[C@@H](NC(=O)[C@](C)(Cc1ccccc1F)NC(=O)[C@@H](NC(=O)CNC(=O)[C@H](Cc1c[nH]cn1)NC(=O)C(C)(C)NC(=O)[C@@H](N)Cc1c[nH]cn1)[C@@H](C)O)[C@@H](C)O)[C@@H](C)CC)C(=O)N[C@@H](CCC(=O)O)C(=O)N[C@@H](Cc1ccc(O)cc1)C(=O)N[C@@H](CC(C)C)C(=O)N[C@@H](CC(C)C)C(=O)N[C@@H](C)C(=O)NCC(=O)NCC(=O)N1CCC[C@H]1C(=O)N[C@@H](CO)C(=O)N[C@@H](CO)C(=O)NCC(=O)N[C@@H](C)C(=O)N1CCC[C@H]1C(=O)N1CCC[C@H]1C(=O)N1CCC[C@H]1C(=O)N[C@@H](CO)C(=O)O", "note": "[HEC-PT153]", "values": [
      {"measurement": "EC50", "setting": "GIPR", "result": 16.9, "unit": "pM"},
      {"measurement": "EC50", "setting": "GLP-1R", "result": 75.2, "unit": "pM"},
      {"measurement": "EC50", "setting": "GCGR", "result": 12.6, "unit": "pM"}
    ]},
    {"compound": "CC[C@H](C)[C@H](NC(=O)[C@H](Cc1ccccc1)NC(=O)[C@H](C)NC(=O)[C@H](CCCCN)NC(=O)[C@H](CCC(N)=O)NC(=O)[C@H](CCCNC(=N)N)NC(=O)[C@H](CCCCNC(=O)COCCOCCNC(=O)CC[C@H](NC(=O)CCCCCCCCCCCCCCCCC(=O)O)C(=O)O)NC(=O)[C@H](CCC(=O)O)NC(=O)[C@H](CC(=O)O)NC(=O)[C@H](CC(C)C)NC(=O)[C@H](CC(C)C)NC(=O)[C@@H](NC(=O)[C@H](CO)NC(=O)[C@H](Cc1ccc(O)cc1)NC(=O)[C@H](CC(=O)O)NC(=O)[C@H](CO)NC(=O)[C@@H](NC(=O)[C@](C)(Cc1ccccc1F)NC(=O)[C@@H](NC(=O)CNC(=O)[C@H](Cc1c[nH]cn1)NC(=O)C(C)(C)NC(=O)[C@@H](N)Cc1ccc(O)cc1)[C@@H](C)O)[C@@H](C)O)[C@@H](C)CC)C(=O)N[C@@H](CCC(=O)O)C(=O)N[C@@H](Cc1ccc(O)cc1)C(=O)N[C@@H](CC(C)C)C(=O)N[C@@H](CC(C)C)C(=O)N[C@@H](C)C(=O)NCC(=O)NCC(=O)N1CCC[C@H]1C(=O)N[C@@H](CO)C(=O)N[C@@H](CO)C(=O)NCC(=O)N[C@@H](C)C(=O)N1CCC[C@H]1C(=O)N1CCC[C@H]1C(=O)N1CCC[C@H]1C(=O)N[C@@H](CO)C(N)=O", "note": "[HEC-PT121]", "values": [
      {"measurement": "EC50", "setting": "GIPR", "result": 81.3, "unit": "pM"},
      {"measurement": "EC50", "setting": "GLP-1R", "result": 274, "unit": "pM"},
      {"measurement": "EC50", "setting": "GCGR", "result": 890, "unit": "pM"}
    ]},
    {"compound": "CC[C@H](C)[C@H](NC(=O)[C@H](CC(C)C)NC(=O)[C@H](Cc1c[nH]c2ccccc12)NC(=O)[C@H](CCC(=O)O)NC(=O)[C@@H](NC(=O)[C@H](Cc1ccccc1)NC(=O)[C@H](CC(=O)O)NC(=O)[C@H](CCC(N)=O)NC(=O)[C@H](CCC(N)=O)NC(=O)[C@H](C)NC(=O)[C@H](CCCCNC(=O)COCCOCCNC(=O)CC[C@H](NC(=O)CCCCCCCCCCCCCCCCCCC(=O)O)C(=O)O)NC(=O)[C@H](CCC(=O)O)NC(=O)[C@H](CC(=O)O)NC(=O)[C@H](CC(C)C)NC(=O)[C@H](CC(C)C)NC(=O)[C@@H](NC(=O)[C@H](CO)NC(=O)[C@H](Cc1ccc(O)cc1)NC(=O)[C@H](CC(=O)O)NC(=O)[C@H](CO)NC(=O)[C@@H](NC(=O)[C@](C)(Cc1ccccc1F)NC(=O)[C@@H](NC(=O)CNC(=O)[C@H](CCC(N)=O)NC(=O)C(C)(C)NC(=O)[C@@H](N)Cc1ccc(O)cc1)[C@@H](C)O)[C@@H](C)O)[C@@H](C)CC)[C@@H](C)CC)C(=O)N[C@@H](C)C(=O)NCC(=O)NCC(=O)N1CCC[C@H]1C(=O)N[C@@H](CO)C(=O)N[C@@H](CO)C(=O)NCC(=O)N[C@@H](C)C(=O)N1CCC[C@H]1C(=O)N1CCC[C@H]1C(=O)N1CCC[C@H]1C(=O)N[C@@H](CO)C(=O)O", "note": "[HEC-PT69]", "values": [
      {"measurement": "EC50", "setting": "GIPR", "result": 419, "unit": "pM"},
      {"measurement": "EC50", "setting": "GLP-1R", "result": 2180, "unit": "pM"},
      {"measurement": "EC50", "setting": "GCGR", "result": 30800, "unit": "pM"}
    ]},
    {"compound": "CC[C@H](C)[C@H](NC(=O)[C@H](Cc1ccccc1)NC(=O)[C@H](C)NC(=O)[C@H](CCC(N)=O)NC(=O)[C@H](CCC(N)=O)NC(=O)[C@H](CCCNC(=N)N)NC(=O)[C@@H](NC(=O)[C@H](CCCNC(=N)N)NC(=O)[C@H](CC(=O)O)NC(=O)[C@H](CCCCNC(=O)COCCOCCNC(=O)CC[C@H](NC(=O)CCCCCCCCCCCCCCCCC(=O)O)C(=O)O)NC(=O)[C@H](CC(C)C)NC(=O)[C@@H](NC(=O)[C@H](CO)NC(=O)[C@H](Cc1ccc(O)cc1)NC(=O)[C@H](CC(=O)O)NC(=O)[C@H](CO)NC(=O)[C@@H](NC(=O)[C@](C)(Cc1ccccc1F)NC(=O)[C@@H](NC(=O)CNC(=O)[C@H](CCC(N)=O)NC(=O)C(C)(C)NC(=O)[C@@H](N)Cc1ccc(O)cc1)[C@@H](C)O)[C@@H](C)O)[C@@H](C)CC)[C@@H](C)CC)C(=O)N[C@@H](CCC(=O)O)C(=O)N[C@@H](Cc1ccc(O)cc1)C(=O)N[C@@H](CC(C)C)C(=O)N[C@@H](CC(C)C)C(=O)N[C@@H](C)C(=O)NCC(=O)NCC(=O)N1CCC[C@H]1C(=O)N[C@@H](CO)C(=O)N[C@@H](CO)C(=O)NCC(=O)N[C@@H](C)C(=O)N1CCC[C@H]1C(=O)N1CCC[C@H]1C(=O)N1CCC[C@H]1C(=O)N[C@@H](CO)C(=O)O", "note": "[HEC-PT147] (H-Y[Aib]QGT[αMePhe(2-F)]TSDYSILK([AEEA-γGlu-C18 diacid])DRIRQQAFIEYLLAGGPSSGAPPPS-OH)", "values": [
      {"measurement": "EC50", "setting": "GIPR", "result": 86.1, "unit": "pM"},
      {"measurement": "EC50", "setting": "GLP-1R", "result": 174, "unit": "pM"},
      {"measurement": "EC50", "setting": "GCGR", "result": 170, "unit": "pM"}
    ]}
  ]
}
